According to patent US5264432A, “5-(1-aminoacyl)-5,10-dihydro-11H-dibenzo[b,e](1,4)diazepin-11-ones” (Arzneimittelwerk Dresden G.m.b.H, priority 1989, dated 1993):
Where a name gives a salt, the structure may show the parent alone. Read-outs that look alike come from different tables or passages of the source.

What was measured:
[1] = tested on: dogs, 24 hours after a two-step coronary ligature; experiment: two-step coronary ligature on the dog (Harris model); assay type: in vivo; conditions: for ectopic contractions in percent/min. / total number of heart contractions/min.: average value; for effective action in minutes (duration of action), Harris dog: i.v. at the effective dose, dogs, 24 hours after two-step coronary ligature
Experimental: Dose is the effective dose in mg/kg, as well as the duration of action in minutes in dogs, 24 hours after a two-step coronary ligature.

[2] = in vivo; conditions: rat, iv, i.v. tail vein, Wistar rats, parentheses = confidence interval p=0.05, read-out: LD50 i.v., acute toxicity of the rat
Experimental: The data were analyzed by the Probit regression analysis with a confidence interval of p=0.05 (values in parentheses).

[3] = tested on: CaCl2 arrhythmia of the rat; experiment: CaCl2 arrhythmia of the rat (antifibrillatory effect); conditions: ratio LD50 iv./ED50 iv.
Experimental: The data is analyzed by the Probit regression analysis with a confidence interval of p=0.05 (values in parentheses).
Q is the ratio of LD50 iv. /ED50 iv. to determine therapeutic breadth range.

[4] = tested on: dogs, 24 hours after a two-step coronary ligature; conditions: quinidine, cited from earlier work

| Compound | ectopic contractions in percent/min. ([1]; 5 mins, 0.005 mmol/kg) | ectopic contractions in percent/min. ([1]; 30 mins, 0.005 mmol/kg) | ectopic contractions in percent/min. ([1]; 60 mins, 0.005 mmol/kg) | ectopic contractions in percent/min. ([1]; 120 mins, 0.005 mmol/kg) | LD50 [2] | effective action in minutes (duration of action), Harris dog [1] | Q = LD50/ED50 (therapeutic breadth) [3] | further results |
| --- | --- | --- | --- | --- | --- | --- | --- | --- |
| 5-(4-Diethylamino-butyryl)-5,10-dihydro-11H-dibenzo(b,e)(1,4)-diazepine-11- one [Example 2] | 26 percent/min. | 24 percent/min. | 75 percent/min. | 90 percent/min. |  |  |  | ectopic contractions in percent/min. ([1]; base, 0.005 mmol/kg): 88 percent/min. |
| CN(C)CCCCCC(=O)N1c2ccccc2NC(=O)c2ccccc21 [Example 1, 5-(6-Dimethylamino-capronyl)-5,10-dihydro-11H-dibenzo(b,e)(1,4)-diazepine-11-one.HCl] | 30 percent/min. | 47 percent/min. | 54 percent/min. | 68 percent/min. | 85 mg/kg | 60 min | 207 | ectopic contractions in percent/min. ([1]; 180 mins, 0.005 mmol/kg): 80 percent/min. |
| CCN(CC)CCCC(=O)N1c2ccc(Cl)cc2NC(=O)c2ccccc21 [Example 4, 8-Chloro-5-(4-diethylamino-butyryl)-5,10-dihydro-11H-dibenzo(b,e)(1,4)-diazepine-11-one] |  |  |  |  | 71 mg/kg | 30 min | 1614 | total number of heart contractions/min. ([1]; 30 mins., 0.005 mmol/kg): 180 min⁻¹; total number of heart contractions/min. ([1]; 120 mins., 0.005 mmol/kg): 183 min⁻¹ |
| CCN(CC)CCCCCC(=O)N1c2ccc(Cl)cc2NC(=O)c2ccccc21 [Example 6, 8-Chloro-5-(6-diethylamino-capronyl)-5,10-dihydro-11H-dibenzo(b,e)(1,4)-diazepine-11-one] | 20 percent/min. | 4 percent/min. | 37 percent/min. | 76 percent/min. | 38 mg/kg | 60 min | 86 | total number of heart contractions/min. ([1]; 5 mins., 0.005 mmol/kg): 170 min⁻¹ |
| O=C1Nc2cc(Cl)ccc2N(C(=O)CCCCCCN2CCOCC2)c2ccccc21 [Example 9, 8-Chloro-5-(7-N-morpholino-enanthoyl)-5,10-dihydro-11H-dibenzo(b,e)(1,4)-diazepine-11-one] | 21 percent/min. | 38 percent/min. | 42 percent/min. | 42 percent/min. | 41 mg/kg | 120 min | 256 | total number of heart contractions/min. ([1]; 120 mins., 0.005 mmol/kg): 156 min⁻¹; ectopic contractions in percent/min. ([1]; 180 mins, 0.005 mmol/kg): 73 percent/min.; ectopic contractions in percent/min. ([1]; 300 mins, 0.005 mmol/kg): 79 percent/min.; total number of heart contractions/min. ([1]; 360 mins., 0.005 mmol/kg): 180 min⁻¹; ectopic contractions in percent/min. ([1]; 360 mins, 0.005 mmol/kg): 89 percent/min. |
| CCN(CC)CC(=O)Nc1c(C)cccc1C [Lidocaine, reference compound] |  |  |  |  |  | 15 min |  | ectopic contractions in percent/min. ([1]; 5 mins, 0.02 mmol/kg (5.4 mg/kg)): 34 percent/min.; ectopic contractions in percent/min. ([1]; 30 mins, 0.02 mmol/kg (5.4 mg/kg)): 78 percent/min.; ectopic arrhythmia / ectopy rate (in words) ([1]; dog, Harris): decrease in the ectopic arrhythmia; total number of heart contractions (in words) ([1]; dog, Harris): decrease in the total number of heart contractions |
| C=C[C@H]1C[N@@]2CC[C@H]1C[C@@H]2[C@@H](O)c1ccnc2ccc(OC)cc12 [Quinidine] |  |  |  |  |  |  |  | Harris dog effective dose ([4]; i.v., reference [1] Mokler and Arman 1962): 10.0 mg/kg; effective action in minutes (duration of action), Harris dog ([4]; i.v., reference [1]): 15 min; ectopic arrhythmia (in words) ([4]; reference [1]): decrease in the ectopic arrhythmia; total number of heart contractions (in words) ([4]; reference [1]): decrease in the total number of heart contractions |
